Legend:
[1] = Stability of ORZY-04 on drying at 45° C. in vacuum; assay type: physicochemical; settings: after 168 h of drying at 45° C. in vacuum
Description: A citric acid solution was prepared by charging citric acid (15.01 g, […]) and MeOH (100 mL) in a separate container and stirring for 5 min. at 20° C. The citric acid solution was then charged to the container containing the reaction solution, and the mixture was cooled to 0° C. and stirred for at least 12 h at 0° C. ORZY-04 was then isolated by filtration of the obtained suspension, and washed with MeOH (40 mL). Finally, the solids were dried at 45° C. in vacuum. Results

[2] = design: species or system human; settings: in vivo, po
Excerpt: The stability permits that the permeability of arimoclomol is high based on urinary recovery in human mass balance trial.

stability on drying [1]	drug-related material recovered in faeces [2] [%]	Structure (SMILES)
stable		[O-][n+]1cccc(/C(Cl)=N/OC[C@H](O)CN2CCCCC2)c1 [ORZY-04]
	12	[O-][n+]1cccc(C(Cl)=NOC[C@H](O)CN2CCCCC2)c1 [arimoclomol, N-{[(2R)-2-hydroxy-3-piperidin-1-ylpropyl]oxy}pyridine-3-carboximidoyl chloride 1-oxide]
